Values quoted from earlier work as cited in patent US20160250192A1, “PRODUCTION METHOD OF PHARMACEUTICAL COMPOSITION CONTAINING CANDESARTAN CILEXETIL” (Sawai Pharmaceutical Co., Ltd., priority 2013, published 2016).

- solubility in water: poorly soluble
SMILES: CCOc1nc2cccc(C(=O)OC(C)OC(=O)OC3CCCCC3)c2n1Cc1ccc(-c2ccccc2-c2nnn[nH]2)cc1 (racemic) [Candesartan cilexetil, (RS)-1-[(cyclohexyloxy)carbonyloxy]ethyl 2-ethoxy-1-{[2′-(1H-tetrazole-5-yl)-biphenyl-4-yl]methyl}-1H-benzimidazole-7-carboxylate]
